# Test results taken from ChEMBL document CHEMBL1127281, “Synthesis and anti-herpes activity of some a-ring functionalized dehydroabietane derivatives” (Bioorg Med Chem Lett, 1994).
# Test system: Vero
# Assay: Concentration required for 50% inhibition of herpes simplex virus 2 (HSV-2) using standard plaque reduction assay in vero cells
# Assay type: functional, cell-based
# Conditions: Chlorocebus sabaeus
row,Compound,IC50 [µg/mL]
1,C[C@]12CC[C@]3(C1)[C@H](CC2=O)C[C@@H](OC(=O)c1ccccc1)[C@H]1[C@](C)(C(=O)O)CCC[C@@]13C [SCOPADULCIC ACID B],0.2

# Test system: not listed separately
# Assay: Concentration required for 50% inhibition of herpes simplex virus 2(HSV-2) using standard plaque reduction assay in vero cells
# Assay type: functional, cell-based
# Conditions: Chlorocebus sabaeus
row,Compound,IC50 [µg/mL]
1,CC(C)c1ccc2c(c1)CC[C@H]1C(=O)[C@@H](O)CC[C@]21C,8
2,C=C1[C@@H](O)CC[C@]2(C)c3ccc(C(C)C)cc3CC[C@@H]12,3
3,C[C@@]1(CO)[C@H](O)CC[C@@]2(C)[C@H]1CCC1C[C@@H]3C[C@@]12CC[C@]3(O)CO (stereo partly drawn),0.2
4,C=C1CCC[C@]2(C)c3ccc(C(C)C)cc3CC[C@@H]12,10
5,CC(C)c1ccc2c(c1)CC[C@H]1[C@@H](CO)[C@@H](O)CC[C@]21C,20
6,CC(C)c1ccc2c(c1)CC[C@H]1[C@@H](CO)CCC[C@]21C,9
7,CC(C)c1ccc2c(c1)CC[C@H]1[C@@](O)(CO)[C@@H](O)CC[C@]21C,9
8,CC(C)c1ccc2c(c1)CC[C@H]1[C@H](O)[C@@H](O)CC[C@]21C,19
9,Nc1nc2c(ncn2COCCO)c(=O)[nH]1 [ACYCLOVIR],1.5

# Continued, values first:
row,IC50 [µg/mL],Compound
1,20,CC(C)c1ccc2c(c1)CC[C@H]1[C@](C)(Sc3ccccn3)CCC[C@]21C
2,20,CC(C)c1ccc2c(c1)CC[C@H]1[C@]3(CCC[C@]21C)CO3
3,14,CC(C)c1ccc2c(c1)CC[C@H]1C(=O)CCC[C@]21C
4,14,CC(C)c1ccc2c(c1)CC[C@H]1[C@@](O)(CO)CCC[C@]21C
5,15,CC(C)c1ccc2c(c1)CC[C@H]1[C@@H](O)CCC[C@]21C
6,20,CC(C)c1ccc2c(c1)CC[C@H]1[C@](C)(C(=O)O)CCC[C@]21C [DEHYDROABIETIC ACID]
7,20,COC(=O)[C@]1(C)CCC[C@]2(C)c3ccc(C(C)C)cc3CC[C@@H]12 [METHYL DEHYDROABIETATE]
8,17,CC(C)c1ccc2c(c1)CC[C@H]1[C@](C)(CO)CCC[C@]21C [POMIFERIN A]
